Reference: patent publication US11767341B2, “Lincosamide antibiotics and uses thereof” (President and Fellows of Harvard College, priority 2017, dated 2023)
Converted amounts (≈) assume the structure as drawn.

What follows are molecules tested on S. aureus ATCC 29213 (assay: MIC determination). Conditions: Staphylococcus aureus, ATCC29213, S. aureus ATCC 29213; read-out: MIC.
Type: cell-based
In the case of `CSC1O[C@H]([C@H](NC(=O)[C@H]2NC[C@@H]3CN(Cc4ccc(N)nc4)CCO[C@H]32)[C@H](C)Cl)C(O)[C@@H](O)[C@H]1O` (stereo partly shown) [FSA-504050], the MIC is reported as 32 µg/mL (≈ 58.6 µM).
In the case of `CSC1O[C@H]([C@H](NC(=O)[C@H]2NC[C@@H]3CN(Cc4ccnc(N)c4)CCO[C@H]32)[C@H](C)Cl)C(O)C(O)[C@H]1O` (stereo partly shown) [FSA-504849], the MIC is reported as 16 µg/mL (≈ 29.3 µM).
For `CSC1O[C@H]([C@H](NC(=O)[C@H]2NC[C@@H]3CN(Cc4ccccc4)CCO[C@H]32)[C@H](C)Cl)C(O)[C@@H](O)[C@H]1O` (stereo partly shown) [FSA-502002], the MIC was 2 µg/mL (≈ 3.77 µM).

Each molecule was assayed on S. aureus BAA 977 iErmA (assay: MIC determination). Conditions: Staphylococcus aureus, BAA977.
Type: cell-based
In the case of `CSC1O[C@H]([C@H](NC(=O)[C@H]2NC[C@@H]3CN(Cc4ccc(N)nc4)CCO[C@H]32)[C@H](C)Cl)C(O)[C@@H](O)[C@H]1O` (stereo partly shown) [FSA-504050], the MIC is reported as 64 µg/mL (≈ 117 µM).
In the case of `CSC1O[C@H]([C@H](NC(=O)[C@H]2NC[C@@H]3CN(Cc4ccnc(N)c4)CCO[C@H]32)[C@H](C)Cl)C(O)C(O)[C@H]1O` (stereo partly shown) [FSA-504849], the MIC is reported as 32 µg/mL (≈ 58.6 µM).
`CSC1O[C@H]([C@H](NC(=O)[C@H]2NC[C@@H]3CN(Cc4ccccc4)CCO[C@H]32)[C@H](C)Cl)C(O)[C@@H](O)[C@H]1O` (stereo partly shown) [FSA-502002] was tested, and the MIC was 2 µg/mL (≈ 3.77 µM).

These molecules were tested on S. aureus MP-549 msr(a) USA 300 (assay: MIC determination). Conditions: Staphylococcus aureus, USA300, S. aureus MP-549 msr(a) USA 300.
Type: cell-based
`CSC1O[C@H]([C@H](NC(=O)[C@H]2NC[C@@H]3CN(Cc4ccc(N)nc4)CCO[C@H]32)[C@H](C)Cl)C(O)[C@@H](O)[C@H]1O` (stereo partly shown) [FSA-504050] gave an MIC of 32 µg/mL (≈ 58.6 µM).
With `CSC1O[C@H]([C@H](NC(=O)[C@H]2NC[C@@H]3CN(Cc4ccnc(N)c4)CCO[C@H]32)[C@H](C)Cl)C(O)C(O)[C@H]1O` (stereo partly shown) [FSA-504849] the MIC was 8 µg/mL (≈ 14.6 µM).
`CSC1O[C@H]([C@H](NC(=O)[C@H]2NC[C@@H]3CN(Cc4ccccc4)CCO[C@H]32)[C@H](C)Cl)C(O)[C@@H](O)[C@H]1O` (stereo partly shown) [FSA-502002] was tested, and the MIC was 2 µg/mL (≈ 3.77 µM).

The molecules below were run on S. aureus MP-513 clinical cErm (assay: MIC determination). Conditions: Staphylococcus aureus.
Type: cell-based
In the case of `CSC1O[C@H]([C@H](NC(=O)[C@H]2NC[C@@H]3CN(Cc4ccc(N)nc4)CCO[C@H]32)[C@H](C)Cl)C(O)[C@@H](O)[C@H]1O` (stereo partly shown) [FSA-504050], the MIC is reported as > 64 µg/mL.
With `CSC1O[C@H]([C@H](NC(=O)[C@H]2NC[C@@H]3CN(Cc4ccnc(N)c4)CCO[C@H]32)[C@H](C)Cl)C(O)C(O)[C@H]1O` (stereo partly shown) [FSA-504849] the MIC was > 64 µg/mL.
In the case of `CSC1O[C@H]([C@H](NC(=O)[C@H]2NC[C@@H]3CN(Cc4ccccc4)CCO[C@H]32)[C@H](C)Cl)C(O)[C@@H](O)[C@H]1O` (stereo partly shown) [FSA-502002], the MIC is reported as > 64 µg/mL.

These molecules were tested on S. aureus UNT96, NRS710, MP-618 (USA 100, Erythro >8) (assay: MIC determination). Conditions: Staphylococcus aureus.
Type: cell-based
For `CSC1O[C@H]([C@H](NC(=O)[C@H]2NC[C@@H]3CN(Cc4ccccc4)CCO[C@H]32)[C@H](C)Cl)C(O)[C@@H](O)[C@H]1O` (stereo partly shown) [FSA-502002], the MIC was > 64 µg/mL.

These molecules were tested on S. aureus UNT-146, MP-620, TP 506 (ermA) (assay: MIC determination). Conditions: Staphylococcus aureus.
Type: cell-based
For `CSC1O[C@H]([C@H](NC(=O)[C@H]2NC[C@@H]3CN(Cc4ccccc4)CCO[C@H]32)[C@H](C)Cl)C(O)[C@@H](O)[C@H]1O` (stereo partly shown) [FSA-502002], the MIC was > 64 µg/mL.

What follows are molecules tested on S. aureus UNT-120, MP-619, NRS22 (USA 600, GISA) (assay: MIC determination). Conditions: Staphylococcus aureus.
Type: cell-based
For `CSC1O[C@H]([C@H](NC(=O)[C@H]2NC[C@@H]3CN(Cc4ccccc4)CCO[C@H]32)[C@H](C)Cl)C(O)[C@@H](O)[C@H]1O` (stereo partly shown) [FSA-502002], the MIC was > 64 µg/mL.

What follows are molecules tested on S. pneumoniae ATCC 49619 (assay: MIC determination). Conditions: Streptococcus pneumoniae, ATCC49619; S. pneumoniae ATCC 49619; read-out: MIC.
Type: cell-based
With `CSC1O[C@H]([C@H](NC(=O)[C@H]2NC[C@@H]3CN(Cc4ccccc4)CCO[C@H]32)[C@H](C)Cl)C(O)[C@@H](O)[C@H]1O` (stereo partly shown) [FSA-502002] the MIC was 0.25 µg/mL (≈ 0.472 µM).

What follows are molecules tested on S. pneumoniae UNT-038, MP-626, TP 160 (mefA) (assay: MIC determination). Conditions: Streptococcus pneumoniae.
Type: cell-based
`CSC1O[C@H]([C@H](NC(=O)[C@H]2NC[C@@H]3CN(Cc4ccccc4)CCO[C@H]32)[C@H](C)Cl)C(O)[C@@H](O)[C@H]1O` (stereo partly shown) [FSA-502002] was tested, and the MIC was 0.25 µg/mL (≈ 0.472 µM).

The molecules below were run on S. pneumoniae UNT-039, MP-627, TP1517 (mefA) (assay: MIC determination). Conditions: Streptococcus pneumoniae.
Type: cell-based
`CSC1O[C@H]([C@H](NC(=O)[C@H]2NC[C@@H]3CN(Cc4ccccc4)CCO[C@H]32)[C@H](C)Cl)C(O)[C@@H](O)[C@H]1O` (stereo partly shown) [FSA-502002] was tested, and the MIC was 0.125 µg/mL (≈ 0.236 µM).

The molecules below were run on S. pyogenes ATCC 19615 (assay: MIC determination). Conditions: Streptococcus pyogenes, ATCC19615; S. pyogenes ATCC 19615; read-out: MIC.
Type: cell-based
With `CSC1O[C@H]([C@H](NC(=O)[C@H]2NC[C@@H]3CN(Cc4ccccc4)CCO[C@H]32)[C@H](C)Cl)C(O)[C@@H](O)[C@H]1O` (stereo partly shown) [FSA-502002] the MIC was 0.125 µg/mL (≈ 0.236 µM).

What follows are molecules tested on S. pyogenes UNT-014, MP-625 MacRes (assay: MIC determination). Conditions: Streptococcus pyogenes; S. pyogenes UNT-014, MP-625 MacRes; read-out: MIC.
Type: cell-based
`CSC1O[C@H]([C@H](NC(=O)[C@H]2NC[C@@H]3CN(Cc4ccccc4)CCO[C@H]32)[C@H](C)Cl)C(O)[C@@H](O)[C@H]1O` (stereo partly shown) [FSA-502002] was tested, and the MIC was 0.125 µg/mL (≈ 0.236 µM).

Each molecule was assayed on E. faecalis ATCC 29212 (assay: MIC determination). Conditions: Enterococcus faecalis, ATCC29212, read-out: MIC.
Type: cell-based
For `CSC1O[C@H]([C@H](NC(=O)[C@H]2NC[C@@H]3CN(Cc4ccccc4)CCO[C@H]32)[C@H](C)Cl)C(O)[C@@H](O)[C@H]1O` (stereo partly shown) [FSA-502002], the MIC was 8 µg/mL (≈ 15.1 µM).

These molecules were tested on E. faecalis UNT-047 VRE (assay: MIC determination). Conditions: Enterococcus faecalis, VRE.
Type: cell-based
In the case of `CSC1O[C@H]([C@H](NC(=O)[C@H]2NC[C@@H]3CN(Cc4ccccc4)CCO[C@H]32)[C@H](C)Cl)C(O)[C@@H](O)[C@H]1O` (stereo partly shown) [FSA-502002], the MIC is reported as > 64 µg/mL.

What follows are molecules tested on K. pneumoniae ATCC 10031 (assay: MIC determination). Conditions: Klebsiella pneumoniae, ATCC10031.
Type: cell-based
`CSC1O[C@H]([C@H](NC(=O)[C@H]2NC[C@@H]3CN(Cc4ccc(N)nc4)CCO[C@H]32)[C@H](C)Cl)C(O)[C@@H](O)[C@H]1O` (stereo partly shown) [FSA-504050] was tested, and the MIC was > 64 µg/mL.
For `CSC1O[C@H]([C@H](NC(=O)[C@H]2NC[C@@H]3CN(Cc4ccnc(N)c4)CCO[C@H]32)[C@H](C)Cl)C(O)C(O)[C@H]1O` (stereo partly shown) [FSA-504849], the MIC was > 64 µg/mL.

Same assay, conditions: Klebsiella pneumoniae, ATCC10031; K. pneumoniae ATCC 10031; read-out: MIC
`CSC1O[C@H]([C@H](NC(=O)[C@H]2NC[C@@H]3CN(Cc4ccccc4)CCO[C@H]32)[C@H](C)Cl)C(O)[C@@H](O)[C@H]1O` (stereo partly shown) [FSA-502002] was tested, and the MIC was 64 µg/mL (≈ 121 µM).

These molecules were tested on E. coli ATCC 25922 (assay: MIC determination). Conditions: Escherichia coli, ATCC25922.
Type: cell-based
For `CSC1O[C@H]([C@H](NC(=O)[C@H]2NC[C@@H]3CN(Cc4ccc(N)nc4)CCO[C@H]32)[C@H](C)Cl)C(O)[C@@H](O)[C@H]1O` (stereo partly shown) [FSA-504050], the MIC was > 64 µg/mL.
In the case of `CSC1O[C@H]([C@H](NC(=O)[C@H]2NC[C@@H]3CN(Cc4ccnc(N)c4)CCO[C@H]32)[C@H](C)Cl)C(O)C(O)[C@H]1O` (stereo partly shown) [FSA-504849], the MIC is reported as > 64 µg/mL.
With `CSC1O[C@H]([C@H](NC(=O)[C@H]2NC[C@@H]3CN(Cc4ccccc4)CCO[C@H]32)[C@H](C)Cl)C(O)[C@@H](O)[C@H]1O` (stereo partly shown) [FSA-502002] the MIC was > 64 µg/mL.

These molecules were tested on E. coli MP-9 ΔTolC (assay: MIC determination). Conditions: Escherichia coli.
Type: cell-based
For `CSC1O[C@H]([C@H](NC(=O)[C@H]2NC[C@@H]3CN(Cc4ccc(N)nc4)CCO[C@H]32)[C@H](C)Cl)C(O)[C@@H](O)[C@H]1O` (stereo partly shown) [FSA-504050], the MIC was > 64 µg/mL.
For `CSC1O[C@H]([C@H](NC(=O)[C@H]2NC[C@@H]3CN(Cc4ccnc(N)c4)CCO[C@H]32)[C@H](C)Cl)C(O)C(O)[C@H]1O` (stereo partly shown) [FSA-504849], the MIC was > 64 µg/mL.
In the case of `CSC1O[C@H]([C@H](NC(=O)[C@H]2NC[C@@H]3CN(Cc4ccccc4)CCO[C@H]32)[C@H](C)Cl)C(O)[C@@H](O)[C@H]1O` (stereo partly shown) [FSA-502002], the MIC is reported as > 64 µg/mL.

The molecules below were run on P. aeruginosa ATCC 27853 (assay: MIC determination). Conditions: Pseudomonas aeruginosa, ATCC27853.
Type: cell-based
For `CSC1O[C@H]([C@H](NC(=O)[C@H]2NC[C@@H]3CN(Cc4ccc(N)nc4)CCO[C@H]32)[C@H](C)Cl)C(O)[C@@H](O)[C@H]1O` (stereo partly shown) [FSA-504050], the MIC was > 64 µg/mL.
For `CSC1O[C@H]([C@H](NC(=O)[C@H]2NC[C@@H]3CN(Cc4ccnc(N)c4)CCO[C@H]32)[C@H](C)Cl)C(O)C(O)[C@H]1O` (stereo partly shown) [FSA-504849], the MIC was > 64 µg/mL.
`CSC1O[C@H]([C@H](NC(=O)[C@H]2NC[C@@H]3CN(Cc4ccccc4)CCO[C@H]32)[C@H](C)Cl)C(O)[C@@H](O)[C@H]1O` (stereo partly shown) [FSA-502002] was tested, and the MIC was > 64 µg/mL.
